Results on 14 molecules are retold here after US8188085B2, “Antifungal agents” (Merck Sharp & Dohme Corp., priority 2008, dated 2012).

The target in this assay is glucan synthase (GS) prepared from Candida albicans MY1055 (Candida albicans, UniProt O13428). The experiment in a line: Glucan synthase inhibition (polymerization assay, 96-well). The following applies: GS from C. albicans MY1055; 60 min incubation at 22° C.; read-out: Candida Albicans GS IC50 (converted). In kind it is biochemical. The method, boiled down: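 Partially purified glucan synthase from C. albicans MY1055 membranes incorporated 0.5 mM ³H-UDPG with 25 μM GTP-γ-S, HEPES pH 7.5, over 60 min at 22 °C. TCA-precipitated glucan was counted by scintillation. IC50 (ng/mL) came from sigmoidal fits of duplicate 3-fold dilution series.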
Sequence of glucan synthase (GS) prepared from Candida albicans MY1055 (O13428 1-1897): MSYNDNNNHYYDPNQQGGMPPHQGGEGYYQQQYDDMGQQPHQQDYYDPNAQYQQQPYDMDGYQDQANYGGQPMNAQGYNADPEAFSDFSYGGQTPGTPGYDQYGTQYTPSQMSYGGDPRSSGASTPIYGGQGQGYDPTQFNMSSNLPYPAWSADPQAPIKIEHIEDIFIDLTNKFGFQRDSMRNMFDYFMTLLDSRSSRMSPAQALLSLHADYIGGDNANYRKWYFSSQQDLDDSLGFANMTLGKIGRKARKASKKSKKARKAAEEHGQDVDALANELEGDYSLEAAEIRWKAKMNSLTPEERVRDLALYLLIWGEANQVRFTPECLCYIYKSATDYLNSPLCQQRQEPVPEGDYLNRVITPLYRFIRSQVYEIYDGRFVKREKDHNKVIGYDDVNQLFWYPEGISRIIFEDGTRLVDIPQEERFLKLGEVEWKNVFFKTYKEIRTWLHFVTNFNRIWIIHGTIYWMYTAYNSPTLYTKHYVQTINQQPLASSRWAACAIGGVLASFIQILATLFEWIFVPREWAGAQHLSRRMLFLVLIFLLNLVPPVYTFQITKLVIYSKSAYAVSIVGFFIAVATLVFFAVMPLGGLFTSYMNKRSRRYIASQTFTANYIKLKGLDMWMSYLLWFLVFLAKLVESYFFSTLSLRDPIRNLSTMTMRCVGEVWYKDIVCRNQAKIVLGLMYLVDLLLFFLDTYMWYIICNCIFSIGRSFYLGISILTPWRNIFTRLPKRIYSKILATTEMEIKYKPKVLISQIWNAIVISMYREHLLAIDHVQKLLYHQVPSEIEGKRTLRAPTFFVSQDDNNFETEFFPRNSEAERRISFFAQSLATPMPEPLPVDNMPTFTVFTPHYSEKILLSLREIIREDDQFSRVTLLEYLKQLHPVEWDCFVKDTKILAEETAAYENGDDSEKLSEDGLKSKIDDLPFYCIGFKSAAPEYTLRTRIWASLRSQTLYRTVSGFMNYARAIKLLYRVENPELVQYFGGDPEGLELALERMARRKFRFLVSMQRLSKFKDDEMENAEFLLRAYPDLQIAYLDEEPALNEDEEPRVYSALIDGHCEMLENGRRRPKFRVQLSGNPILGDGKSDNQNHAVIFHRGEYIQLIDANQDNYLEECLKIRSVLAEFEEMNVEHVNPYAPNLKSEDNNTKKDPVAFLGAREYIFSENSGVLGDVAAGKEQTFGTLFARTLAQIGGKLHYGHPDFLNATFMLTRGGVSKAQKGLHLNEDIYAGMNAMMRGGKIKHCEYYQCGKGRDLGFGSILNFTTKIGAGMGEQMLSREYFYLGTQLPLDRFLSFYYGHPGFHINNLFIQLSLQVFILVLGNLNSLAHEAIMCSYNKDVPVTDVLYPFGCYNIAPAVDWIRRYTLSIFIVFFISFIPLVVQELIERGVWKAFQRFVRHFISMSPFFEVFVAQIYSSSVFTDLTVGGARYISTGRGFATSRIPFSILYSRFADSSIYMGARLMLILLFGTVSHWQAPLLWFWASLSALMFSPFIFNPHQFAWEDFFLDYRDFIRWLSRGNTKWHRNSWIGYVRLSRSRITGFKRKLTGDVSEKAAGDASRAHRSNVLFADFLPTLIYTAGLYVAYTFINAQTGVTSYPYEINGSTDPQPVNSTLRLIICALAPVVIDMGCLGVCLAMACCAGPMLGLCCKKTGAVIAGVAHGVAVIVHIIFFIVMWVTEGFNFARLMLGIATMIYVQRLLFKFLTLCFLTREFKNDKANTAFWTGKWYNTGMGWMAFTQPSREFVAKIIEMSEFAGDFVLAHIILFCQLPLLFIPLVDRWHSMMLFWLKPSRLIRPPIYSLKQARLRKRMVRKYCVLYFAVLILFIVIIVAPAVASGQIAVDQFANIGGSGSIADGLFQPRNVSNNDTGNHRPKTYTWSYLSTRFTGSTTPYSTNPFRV
Consider `CC(C)[C@@H](C)[C@@]1(C)CC[C@]2(C)[C@H]3CC[C@@H]4[C@@]5(COC[C@@]4(C)[C@@H](OC[C@](C)(N)C(C)C)[C@H](n4ncnc4-c4ccoc4)C5)C3=CC[C@@]2(C)[C@@H]1C(=O)O` [Example 144, (1S,4aR,6aS,7R,8R,10aR,10bR,12aR,14R,15R)-15-[[(2R)-2-amino-2,3-dimethylbutyl]oxy]-8-[(1R)-1,2-dimethylpropyl]-14-[5-(3-furanyl)-1H-1,2,4-triazol-1-yl]-1,6,6a,7,8,9,10,10a,10b,11,12,12a-dodecahydro-1,6a,8,10a-tetramethyl-4H-1,4a-propano-2H-phenanthro[1,2-c]pyran-7-carboxylic acid], for which the IC50 was 8.51 nM.

With `CC(C)[C@@H](C)[C@@]1(C)CC[C@]2(C)[C@H]3CC[C@@H]4[C@@]5(COC[C@@]4(C)[C@@H](OC[C@](C)(N)C(C)C)[C@H](n4ncnc4N4CCOCC4)C5)C3=CC[C@@]2(C)[C@@H]1C(=O)O` [Example 148, (1S,4aR,6aS,7R,8R,10aR,10bR,12aR,14R,15R)-15-[[(2R)-2-amino-2,3-dimethylbutyl]oxy]-8-[(1R)-1,2-dimethylpropyl]-14-[5-(4-morpholinyl)-1H-1,2,4-triazol-1-yl]-1,6,6a,7,8,9,10,10a,10b,11,12,12a-dodecahydro-1,6a,8,10a-tetramethyl-4H-1,4a-propano-2H-phenanthro[1,2-c]pyran-7-carboxylic acid], the IC50 is 18 nM. The figure for `CN[C@@](C)(CO[C@H]1[C@H](n2ncnc2-c2ccccc2)C[C@@]23COC[C@]1(C)[C@@H]2CC[C@H]1C3=CC[C@@]2(C)[C@H](C(=O)O)[C@@](C)([C@H](C)C(C)C)CC[C@]12C)C(C)C` [Example 150, (1S,4aR,6aS,7R,8R,10aR,10bR,12aR,14R,15R)-15-[[(2R)-2,3-dimethyl-2-(methylamino)butyl]oxy]-8-[(1R)-1,2-dimethylpropyl]-14-(5-phenyl-1H-1,2,4-triazol-1-yl)-1,6,6a,7,8,9,10,10a,10b,11,12,12a-dodecahydro-1,6a,8,10a-tetramethyl-4H-1,4a-propano-2H-phenanthro[1,2-c]pyran-7-carboxylic acid] is 2.74 nM; for `CC(C)[C@@H](C)[C@@]1(C)CC[C@]2(C)[C@H]3CC[C@@H]4[C@@]5(COC[C@@]4(C)[C@@H](OC[C@](C)(N)C(C)C)[C@H](n4ncnc4-c4ccc6ccccc6c4)C5)C3=CC[C@@]2(C)[C@@H]1C(=O)O` [Example 158, (1S,4aR,6aS,7R,8R,10aR,10bR,12aR,14R,15R)-15-[[(2R)-2-amino-2,3-dimethylbutyl]oxy]-8-[(1R)-1,2-dimethylpropyl]-14-[5-(2-naphthalenyl)-1H-1,2,4-triazol-1-yl]-1,6,6a,7,8,9,10,10a,10b,11,12,12a-dodecahydro-1,6a,8,10a-tetramethyl-4H-1,4a-propano-2H-phenanthro[1,2-c]pyran-7-carboxylic acid] it is 20.9 nM. The figure for `CN[C@@](C)(CO[C@H]1[C@H](n2ncnc2-c2cccs2)C[C@@]23COC[C@]1(C)[C@@H]2CC[C@H]1C3=CC[C@@]2(C)[C@H](C(=O)O)[C@@](C)([C@H](C)C(C)C)CC[C@]12C)C(C)C` [Example 163, (1S,4aR,6aS,7R,8R,10aR,10bR,12aR,14R,15R)-15-[[(2R)-2,3-dimethyl-2-(methylamino)butyl]oxy]-8-[(1R)-1,2-dimethylpropyl]-14-[5-(2-thienyl)-1H-1,2,4-triazol-1-yl]-1,6,6a,7,8,9,10,10a,10b,11,12,12a-dodecahydro-1,6a,8,10a-tetramethyl-4H-1,4a-propano-2H-phenanthro[1,2-c]pyran-7-carboxylic acid] is 6.8 nM; for `C=C(C)c1ncnn1[C@@H]1C[C@@]23COC[C@](C)([C@@H]2CC[C@H]2C3=CC[C@@]3(C)[C@H](C(=O)O)[C@@](C)([C@H](C)C(C)C)CC[C@]23C)[C@H]1OC[C@](C)(N)C(C)C` [Example 168, (1S,4aR,6aS,7R,8R,10aR,10bR,12aR,14R,15R)-15-[[(2R)-2-amino-2,3-dimethylbutyl]oxy]-8-[(1R)-1,2-dimethylpropyl]-14-[5-(1-methylethenyl)-1H-1,2,4-triazol-1-yl]-1,6,6a,7,8,9,10,10a,10b,11,12,12a-dodecahydro-1,6a,8,10a-tetramethyl-4H-1,4a-propano-2H-phenanthro[1,2-c]pyran-7-carboxylic acid] it is 4.42 nM. As for `CCCc1ncnn1[C@@H]1C[C@@]23COC[C@](C)([C@@H]2CC[C@H]2C3=CC[C@@]3(C)[C@H](C(=O)O)[C@@](C)([C@H](C)C(C)C)CC[C@]23C)[C@H]1OC[C@](C)(N)C(C)C` [Example 169, (1S,4aR,6aS,7R,8R,10aR,10bR,12aR,14R,15R)-15-[[(2R)-2-amino-2,3-dimethylbutyl]oxy]-8-[(1R)-1,2-dimethylpropyl]-14-(5-propyl-1H-1,2,4-triazol-1-yl)-1,6,6a,7,8,9,10,10a,10b,11,12,12a-dodecahydro-1,6a,8,10a-tetramethyl-4H-1,4a-propano-2H-phenanthro[1,2-c]pyran-7-carboxylic acid], the IC50 was 4.41 nM. `CC(C)[C@@H](C)[C@@]1(C)CC[C@]2(C)[C@H]3CC[C@@H]4[C@@]5(COC[C@@]4(C)[C@@H](OC[C@](C)(N)C(C)(C)C)[C@H](n4ncnc4-c4ccc(CN)cc4)C5)C3=CC[C@@]2(C)[C@@H]1C(=O)O` [Example 178, (1S,4aR,6aS,7R,8R,10aR,10bR,12aR,14R,15R)-14-[5-[4-(aminomethyl)phenyl]-1H-1,2,4-triazol-1-yl]-15-[[(2R)-2-amino-2,3,3-trimethylbutyl]oxy]-8-[(1R)-1,2-dimethylpropyl]-1,6,6a,7,8,9,10,10a,10b,11,12,12a-dodecahydro-1,6a,8,10a-tetramethyl-4H-1,4a-propano-2H-phenanthro[1,2-c]pyran-7-carboxylic acid]: the IC50 is 1.06 nM. In the case of `CC(C)[C@@H](C)[C@@]1(C)CC[C@]2(C)[C@H]3CC[C@@H]4[C@@]5(COC[C@@]4(C)[C@@H](OC[C@](C)(N)C(C)C)[C@H](n4ncnc4-c4cncs4)C5)C3=CC[C@@]2(C)[C@@H]1C(=O)O` [Example 193, (1S,4aR,6aS,7R,8R,10aR,10bR,12aR,14R,15R)-15-[[(2R)-2-amino-2,3-dimethylbutyl]oxy]-8-[(1R)-1,2-dimethylpropyl]-14-[5-(5-thiazolyl)-1H-1,2,4-triazol-1-yl]-1,6,6a,7,8,9,10,10a,10b,11,12,12a-dodecahydro-1,6a,8,10a-tetramethyl-4H-1,4a-propano-2H-phenanthro[1,2-c]pyran-7-carboxylic acid], the IC50 is 4.15 nM. As for `CC(C)[C@@H](C)[C@@]1(C)CC[C@]2(C)[C@H]3CC[C@@H]4[C@@]5(COC[C@@]4(C)[C@@H](OC[C@](C)(N)C(C)C)[C@H](n4ncnc4-c4ccc(O)nc4)C5)C3=CC[C@@]2(C)[C@@H]1C(=O)O` [Example 199, (1S,4aR,6aS,7R,8R,10aR,10bR,12aR,14R,15R)-15-[[(2R)-2-amino-2,3-dimethylbutyl]oxy]-8-[(1R)-1,2-dimethylpropyl]-14-[5-(6-hydroxy-3-pyridinyl)-1H-1,2,4-triazol-1-yl]-1,6,6a,7,8,9,10,10a,10b,11,12,12a-dodecahydro-1,6a,8,10a-tetramethyl-4H-1,4a-propano-2H-phenanthro[1,2-c]pyran-7-carboxylic acid], the IC50 is 0.546 nM. Regarding `CC(C)[C@@H](C)[C@@]1(C)CC[C@]2(C)[C@H]3CC[C@@H]4[C@@]5(COC[C@@]4(C)[C@@H](OC[C@](C)(N)C(C)C)[C@H](n4ncnc4-c4ccc(N)cc4)C5)C3=CC[C@@]2(C)[C@@H]1C(=O)O` [Example 200, (1S,4aR,6aS,7R,8R,10aR,10bR,12aR,14R,15R)-15-[[(2R)-2-amino-2,3-dimethylbutyl]oxy]-14-[5-(4-aminophenyl)-1H-1,2,4-triazol-1-yl]-8-[(1R)-1,2-dimethylpropyl]-1,6,6a,7,8,9,10,10a,10b,11,12,12a-dodecahydro-1,6a,8,10a-tetramethyl-4H-1,4a-propano-2H-phenanthro[1,2-c]pyran-7-carboxylic acid], the concentration for half-maximal inhibition (IC50) was 8.22 nM. Take `CC(C)[C@@H](C)[C@@]1(C)CC[C@]2(C)[C@H]3CC[C@@H]4[C@@]5(COC[C@@]4(C)[C@@H](OC[C@](C)(N)C(C)(C)C)[C@H](n4ncnc4-c4ccnc(N)c4)C5)C3=CC[C@@]2(C)[C@@H]1C(=O)O` [Example 214, (1S,4aR,6aS,7R,8R,10aR,10bR,12aR,14R,15R)-14-[5-(2-amino-4-pyridinyl)-1H-1,2,4-triazol-1-yl]-15-[[(2R)-2-amino-2,3,3-trimethylbutyl]oxy]-8-[(1R)-1,2-dimethylpropyl]-1,6,6a,7,8,9,10,10a,10b,11,12,12a-dodecahydro-1,6a,8,10a-tetramethyl-4H-1,4a-propano-2H-phenanthro[1,2-c]pyran-7-carboxylic acid]: the IC50 was 1.34 nM.

For `CC(C)[C@@H](C)[C@@]1(C)CC[C@]2(C)[C@H]3CC[C@@H]4[C@@]5(COC[C@@]4(C)[C@@H](OC[C@](C)(N)C(C)(C)C)[C@H](n4ncnc4-c4ccc(O)nc4)C5)C3=CC[C@@]2(C)[C@@H]1C(=O)O` [Example 218, (1S,4aR,6aS,7R,8R,10aR,10bR,12aR,14R,15R)-15-[[(2R)-2-amino-2,3,3-trimethylbutyl]oxy]-8-[(1R)-1,2-dimethylpropyl]-14-[5-(6-hydroxy-3-pyridinyl)-1H-1,2,4-triazol-1-yl]-1,6,6a,7,8,9,10,10a,10b,11,12,12a-dodecahydro-1,6a,8,10a-tetramethyl-4H-1,4a-propano-2H-phenanthro[1,2-c]pyran-7-carboxylic acid], the concentration for half-maximal inhibition (IC50) was 1.07 nM. With `CC(C)[C@@H](C)[C@@]1(C)CC[C@]2(C)[C@H]3CC[C@@H]4[C@@]5(COC[C@@]4(C)[C@@H](OC[C@](C)(N)C(C)(C)C)[C@H](n4ncnc4-c4ccc(C(N)=O)nc4)C5)C3=CC[C@@]2(C)[C@@H]1C(=O)O` [Example 221, (1S,4aR,6aS,7R,8R,10aR,10bR,12aR,14R,15R)-14-[5-[6-(aminocarbonyl)-3-pyridinyl]-1H-1,2,4-triazol-1-yl]-15-[[(2R)-2-amino-2,3,3-trimethylbutyl]oxy]-8-[(1R)-1,2-dimethylpropyl]-1,6,6a,7,8,9,10,10a,10b,11,12,12a-dodecahydro-1,6a,8,10a-tetramethyl-4H-1,4a-propano-2H-phenanthro[1,2-c]pyran-7-carboxylic acid], the concentration for half-maximal inhibition (IC50) was 3.88 nM.

What is called IC50 is the concentration needed to halve the response being measured.
